Laboratory results as given in publication PMC12670405, “Second-Generation AURKA-Targeting PROTACs: Structural Optimization toward in Vivo Degradation in Neuroblastoma” (Journal of Medicinal Chemistry, 2025).

Target: T1, AURKA (Homo sapiens, UniProt O14965)
T1 sequence (O14965 1-403): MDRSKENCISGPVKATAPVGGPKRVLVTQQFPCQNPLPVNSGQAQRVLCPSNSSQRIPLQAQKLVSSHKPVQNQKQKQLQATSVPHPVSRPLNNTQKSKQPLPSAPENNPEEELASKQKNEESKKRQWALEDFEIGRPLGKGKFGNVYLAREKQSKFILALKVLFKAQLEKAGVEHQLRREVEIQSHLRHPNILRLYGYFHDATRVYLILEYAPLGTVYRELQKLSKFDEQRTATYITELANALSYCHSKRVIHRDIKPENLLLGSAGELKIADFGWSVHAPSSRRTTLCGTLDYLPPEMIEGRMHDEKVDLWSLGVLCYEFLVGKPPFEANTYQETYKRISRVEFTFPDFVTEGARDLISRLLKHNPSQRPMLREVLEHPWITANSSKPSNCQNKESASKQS
Assay: In vivo pharmacodynamics study, IMR-32 cell line-derived xenograft, Western blot
Design: from tissue; host or cells: IMR-32 cell line-derived xenograft tumours, BALB/c nude mice; species or system BALB/c nude mice
Conditions: for AURKA protein reduction in tumor (in words): single IP dose 15 mg/kg; for AURKA protein levels in tumor (in words): single IV dose 15 mg/kg
Experimental: Protein lysates were denatured through addition of Laemmli buffer supplemented with β-mercaptoethanol (Sigma-Aldrich, #M6250) heated at 95 °C for 10 min. […] The ladder used was the PageRuler Prestained Protein Ladder (Thermo Fisher Scientific, #26617). Afterward, proteins were blotted on nitrocellulose membranes (Bio-Rad, #162-0233) by running at 100 V for 1 h with a buffer containing 10% 10× Tris/glycine (Bio-Rad, #161-0771) and 20% methanol (Thermo Fisher Scientific, #0390D). Ponceau staining was used for confirmation of protein transfer. Membranes were blocked in 5% milk/TBST or 5% BSA/TBST for 1 h at room temperature and subsequently incubated with primary antibodies overnight at 4 °C. Blots were washed 3× for 5 min each with TBST prior to incubation with secondary antibodies for 1 h at room temperature. Visualization of the blots was done using WestDura or WestFemto (Thermo Fisher Scientific, #34096, #34076) with the Amersham Imager 680 (BIOKÉ). Blots were stripped using the Restore Stripping Buffer (Thermo Fisher Scientific, #21059) prior to detection of additional proteins. Images were compiled and quantified using Sciugo (https://sciugo.com/). Per lane, quantified data were always normalized to that of the loading control (Vinculin or GAPDH), prior to calculating fold changes. Mean fold changes are calculated from 3 individual experiments. A list of the primary and secondary antibodies used can be found in the Supporting Information (Supplementary Table S7).
Both the in vivo pharmacokinetics and in vivo pharmacodynamics studies were performed by Eurofins Pharmacology Discovery Services. All mice were provided by BioLasco Taiwan (under Charles River Laboratories Licensee). Animals were acclimated for 3 days prior to use and were confirmed to be in good health. All aspects of this work including housing, experimentation, and animal disposal were performed in general accordance with the “Guide for the Care and Use of Laboratory Animals: Eighth Edition” (National Academies Press, Washington, DC. 2011) in a AAALAC-accredited laboratory animal facility. In addition, the animal care and use protocol was reviewed and approved by the IACUC at Eurofins Pharmacology Discovery Services; IN020-08202020 and ON002-07142023.
Six-week old female BALB/c nude mice were subcutaneously implanted with viable IMR-32 cells formulated in 50% Matrigel into the right flank (1 × 10^7 cells/mouse, in 0.2 mL volume). Palpable tumor volumes were measured with a caliper and calculated according to the prolate ellipsoid formula: tumor volume = length × width^2 × 0.5. When the mean tumor volume reached ∼250 mm^3, animals were randomized into groups (0, 4, 8, 24 h) with 3 animals per group. […] Other groups were given a single IV or IP administration of SK5527 or SK4454 at 15 mg/kg (dissolved in 5% DMSO/5% Solutol HS15/90% PBS). Tumors were subsequently harvested at the respective time points, snap-frozen in liquid nitrogen, and kept frozen at −70 °C until further processing. Upon receipt of the samples in our lab, we mechanically digested and lysed tumor pieces by adding cold RIPA lysis buffer (with protease and phosphatase inhibitors as previously described) and Stainless Steel Beads (Qiagen, #69989) followed by shaking for 2 min (twice) using TissueLyser II (Qiagen). Afterward, samples were centrifuged for 20 min (10,000 rpm, 4 °C). The supernatant was then collected and the concentration of the obtained protein lysates was measured using the Pierce BCA Protein Assay Kit (Thermo Fisher Scientific, #23227). Western blot was performed as previously described to visualize changes in AURKA protein levels.

Compound | AURKA protein reduction in tumor (in words) | AURKA protein levels in tumor (in words) (4 and 8 h post-treatment) | AURKA protein levels in tumor (in words) (24 h)
Cc1cc(Nc2ccc(F)c(CC3(C(=O)N4CCC(F)(CN5CCN(c6ccc(N7CCC(=O)NC7=O)cn6)CC5)CC4)CCN(Cc4cccc(Cl)c4F)CC3)n2)n[nH]1 [SK5527] | not observed | strongly reduced AURKA protein levels | return to baseline levels
Cc1cc(Nc2ccc(F)c(CC3(C(=O)N4CCC(CN5CCN(c6ccc(N7CCC(=O)NC7=O)cn6)CC5)CC4)CCN(Cc4cccc(Cl)c4F)CC3)n2)n[nH]1 [SK4454] | not observed | strongly reduced AURKA protein levels | return to baseline levels
